Test results taken from patent US8912227B1, “Bicyclic pyrrole derivatives useful as agonists of GPR120” (Janssen Pharmaceutica NV, priority 2014, dated 2014).

Key:
Human GPR120 short form = target: T1, Human GPR120 short form (Homo sapiens, UniProt Q5NUL3); assay: Human GPR120 calcium flux assay, Procedure Calcium B; assay type: cell-based; conditions: HEK-293 cells expressing human GPR120 short form, 4200 cells/well, FLIPR
T1 construct: expressed in transfected cells
T1 sequence (Q5NUL3 1-361): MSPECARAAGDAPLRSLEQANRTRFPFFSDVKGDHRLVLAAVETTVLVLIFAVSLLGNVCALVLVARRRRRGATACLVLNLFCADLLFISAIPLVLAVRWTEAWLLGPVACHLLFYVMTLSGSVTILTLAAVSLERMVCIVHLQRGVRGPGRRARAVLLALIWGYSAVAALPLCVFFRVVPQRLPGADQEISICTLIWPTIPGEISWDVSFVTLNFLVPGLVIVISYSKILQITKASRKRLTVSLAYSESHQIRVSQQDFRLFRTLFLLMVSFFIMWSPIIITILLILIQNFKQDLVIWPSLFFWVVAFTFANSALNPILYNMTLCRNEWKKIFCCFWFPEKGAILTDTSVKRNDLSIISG

C57bl/6J Mice = assay: GPR120 C57bl6 mouse IPGTT; assay type: in vivo; conditions: 30.0 mg/kg, dosed 30 minutes prior to IP glucose 1.5 g/kg; compared with vehicle
Description: Male, C57bl/6J Mice were ordered in at 8 weeks of age from Jackson Labs. Individual mice weighed anywhere in the range of 25-30 grams on study day. The mice were fasted, with removal of food occurring at 7 am on the morning of the study. Animals were moved into the room at 10:00 am, to give them time to acclimate. Glucose (insulin syringes) was drawn up either the night before or the morning of the study. Glucose was dosed (IP) at 1.5 g/kg at 7.5 ml/kg (20% glucose straight TEKNOVA, 250 ml sterile bottle w/ catalogue number G0525). Test compounds were kept spinning and were only drawn into the syringes prior to study commencement. Animals were bled via tail snip to determine basal glucose levels prior to dosing of treatments. An Ascensia BREEZE Blood Glucose Monitoring System by Bayer (using unique 10-test disks) was used for determining glucose levels. The bleeds started at approximately 12:45 pm and dosing started, at 1-minute intervals, immediately after. All groups were dosed 30 minutes prior to glucose administration at a dose volume of 10 ml/kg (the dose volume was calculated separately for each individual animal). Thirty minutes after the first dose animals were bled again for a second baseline, or T=0, and immediately dosed with glucose via an i.p. injection. The exact dose volume for glucose was also calculated separately for each individual animal. […]

| EC50 (Human GPR120 short form) [nM] | Compound | GPR120 C57bl6 Mouse IPGTT Results (C57bl/6J Mice) |
| --- | --- | --- |
| 40 | CCc1ccc(-n2ccc(C(F)(F)F)c2COc2ccc(CCC(=O)O)c(F)c2F)cc1 [Compound 34, 3-(4-[[1-(4-ethylphenyl)-3-(trifluoromethyl)-1H-pyrrol-2-yl]methoxy]-2,3-difluorophenyl)propanoic acid] |  |
| 162 | OCCCc1ccc(OCc2c(C(F)(F)F)ccn2-c2ccc(Cl)cc2)c(F)c1F [Compound 29, 3-(4-{[1-(4-Chlorophenyl)-3-(trifluoromethyl)-1H-pyrrol-2-yl]methoxy}-2,3-difluorophenyl)propan-1-ol] |  |
| 50 | Cc1ccc(-n2ccc(C(F)(F)F)c2COc2c(F)cc(CCC(=O)O)cc2F)cc1 [Compound 39, 3-(3,5-difluoro-4-[[1-(4-methylphenyl)-3-(trifluoromethyl)-1H-pyrrol-2-yl]methoxy]phenyl)propanoic acid] |  |
|  | Cc1c(CCC(=O)O)ccc(OCc2cccn2-c2ccc(Cl)cc2)c1C [Compound 1, 3-(4-{[1-(4-Chlorophenyl)-1H-pyrrol-2-yl]methoxy}-2,3-dimethylphenyl)propanoic acid] | not different |
